Test results published in US20260125371A1, “METHOD FOR INHIBITING CLOSTRIDIOIDES DIFFICILE SPORE GERMINATION” (UNIVERSITY OF NOTRE DAME DU LAC, priority 2022, published 2026).
Values after ≈ are worked out from the molar mass of the structure shown. “Also recorded” adds a separate entry of the source. Read-outs that look alike come from different tables or passages of the source.

Experiments:
THP-1 cells = assay: Lactate dehydrogenase (LDH) cytotoxicity assay; format: cell-based, human; conditions: for IC50: Homo sapiens
C. difficile ATCC 43255 [1] = assay: Determination of minimal-inhibitory concentrations (microdilution), C. difficile ATCC 43255; format: cell-based, Clostridioides difficile; conditions: for MIC C. difficile: Table 1; for MIC: Clostridioides difficile
S. aureus = assay: MIC against S. aureus strains; format: cell-based; conditions: S. aureus ATCC 29213, 24 h; for MIC: Staphylococcus aureus, ATCC29213, 24 h, read-out: MIC (μg/mL) 24 h
[2] = Solubility observed during characterisation; conditions: DMSO, room temperature
HepG2 cells = assay: XTT cytotoxicity assay; format: cell-based; conditions: Homo sapiens, HepG2, read-out: XTT IC50
E. coli ATCC25922 = assay: MIC against E. coli; format: cell-based; conditions: Escherichia coli, ATCC25922
Gram-negative bacteria = format: cell-based
[3] = system: Lactobacillus gasseri HM-644; conditions: cited from earlier work
Veillonella sp. HM-49 = conditions: cited from earlier work
[4] = system: extended panel of Gram-positive bacteria; assay: MIC range over extended panel of Gram-positive bacteria; format: cell-based
[5] = system: Clostridioides difficile infection; conditions: CDI patients; cited from earlier work
[6] = system: Bifidobacterium longum HM-846; conditions: cited from earlier work
K. pneumoniae ATCC700603 = assay: MIC against K. pneumoniae; format: cell-based; conditions: Klebsiella pneumoniae, ATCC700603
P. aeruginosa ATCC27853 = assay: MIC against P. aeruginosa; format: cell-based; conditions: Pseudomonas aeruginosa, ATCC27853
[7] = system: Fusobacterium nucleatum HM-992; conditions: cited from earlier work
[8] = system: C. difficile ATCC 43255 vegetative cells; assay: Mode of action by scanning electron microscopy (SEM); conditions: 8× MIC for 24 h
A. baumanii ATCC17961 = assay: MIC against A. baumanii; format: cell-based; conditions: Acinetobacter baumannii, ATCC17961
C. difficile ATCC 43255 [9] = format: cell-based, Clostridioides difficile
E. aerogenes ATCC35029 = assay: MIC against E. aerogenes; format: cell-based; conditions: Klebsiella aerogenes, ATCC35029
C. difficile ATCC 43255 [10] = assay: Minimal-bactericidal concentration (MBC); format: cell-based, Clostridioides difficile
[11] = system: Lactobacillus reuteri HM-102; conditions: cited from earlier work
[12] = system: Bacteroides fragilis HM-709; conditions: cited from earlier work
[13] = C. difficile ATCC 43255, 48-h incubation
[14] = ATCC43255, 24 h, C. difficile ATCC 43255, 24 h, read-out: MIC (μg/mL) 24 h
[15] = ATCC43255, Table 1, strain ATCC 43255, read-out: MIC C. difficile
[16] = THP-1, 24 h, read-out: LDH (IC50)

Row | SMILES | LDH (IC50) (THP-1 cells; THP-1 cells, 24 h) [µg/mL] | MIC (μg/mL) 48 h (C. difficile ATCC 43255 [1]; [13]) [µg/mL] | MIC (μg/mL) 24 h (C. difficile ATCC 43255 [1]; C. difficile ATCC 43255, 24 h) [µg/mL] | MIC C. difficile (C. difficile ATCC 43255 [1]; strain ATCC 43255) [µg/mL] | MIC (μg/mL) 24 h (S. aureus) [µg/mL] | MIC (C. difficile ATCC 43255 [1]; [14]) [µg/mL] | MIC (C. difficile ATCC 43255 [1]; [15]) [µg/mL] | other results
1 | Oc1ccc(-c2nc(-c3ccc(Oc4ccc(C(F)(F)F)cc4)cc3)no2)cc1 [Compound 9] | 17 ± 1 | 2 (≈ 5.02 µM) | 2 (≈ 5.02 µM) | 2 (≈ 5.02 µM) | 1 (≈ 2.51 µM) |  |  | 
2 | Oc1ccc(-c2nc(-c3ccc(Oc4ccc(C(F)(F)F)cc4)cc3)no2)cc1F [Compound 10] | 5.2 ± 0.02 | 4 (≈ 9.61 µM) | 4 (≈ 9.61 µM) | 4 (≈ 9.61 µM) | 2 (≈ 4.8 µM) |  |  | 
3 | Oc1c(F)cc(-c2nc(-c3ccc(Oc4ccc(C(F)(F)F)cc4)cc3)no2)cc1F [Compound 11] | 18 ± 2 | 4 (≈ 9.21 µM) | 4 (≈ 9.21 µM) | 4 (≈ 9.21 µM) | 2 (≈ 4.6 µM) |  |  | 
4 | O=[N+]([O-])c1cc(-c2nc(-c3ccc(Oc4ccc(C(F)(F)F)cc4)cc3)no2)cnc1O [Compound 16] | 37 ± 11 | 2 (≈ 4.5 µM) | 2 (≈ 4.5 µM) | 2 (≈ 4.5 µM) | 8 (≈ 18 µM) |  |  | 
5 | Cl.NCc1ccc(-c2nc(-c3ccc(Oc4ccc(C(F)(F)F)cc4)cc3)no2)cc1 [Compound 17, (4-(3-(4-(4-(Trifluoromethyl)phenoxy)phenyl)-1,2,4-oxadiazol-5-yl)phenyl) methanamine hydrochloride salt] |  |  |  |  |  | 4 | 4 | IC50 (THP-1 cells; THP-1 cells, 24 h, read-out: LDH (IC50)): 4.4 ± 0.7 µg/mL; MIC (S. aureus): 2 to 4 µg/mL
6 | O=[N+]([O-])c1c[nH]nc1-c1nc(-c2ccc(Oc3ccc(C(F)(F)F)cc3)cc2)no1 [Compound 30] | 21 ± 5 | 4 (≈ 9.59 µM) | 4 (≈ 9.59 µM) | 4 (≈ 9.59 µM) | 2 (≈ 4.79 µM) |  |  | 
7 | Oc1ccc(-c2nc(-c3ccc(OC4CCCC=C4Br)cc3)no2)cc1 (stereo not drawn) [Compound 99, 4-(3-(4-((2-Bromocyclohex-2-en-1-yl)oxy)phenyl)-1,2,4-oxadiazol-5-yl)phenol] |  |  |  |  |  | 2 (≈ 4.84 µM) | 2 (≈ 4.84 µM) | IC50 (THP-1 cells; [16]): 8.4 ± 0.3 µg/mL (≈ 20.3 µM); MIC (C. difficile ATCC 43255 [1]; ATCC43255, 48 h, C. difficile ATCC 43255, 48-h incubation, read-out: MIC (μg/mL) 48 h): 2 µg/mL (≈ 4.84 µM); MIC (S. aureus): 4 µg/mL (≈ 9.68 µM)
8 | O=[N+]([O-])c1c[nH]nc1-c1nc(-c2ccc3oc4ccccc4c3c2)no1 [Compound 118, 3-(Dibenzo[b,d]furan-2-yl)-5-(4-nitro-1H-pyrazol-3-yl)-1,2,4-oxadiazole] |  |  |  |  |  | 4 (≈ 11.5 µM) | 4 (≈ 11.5 µM) | IC50 (THP-1 cells; [16]): 9.8 ± 3.3 µg/mL (≈ 28.2 µM); MIC (S. aureus): 2 µg/mL (≈ 5.76 µM)
9 | Cl.O=[N+]([O-])c1c[nH]c(-c2nc(-c3ccc(CN4CCCC4)cc3)no2)n1 [Compound 130] |  |  |  |  |  | > 128 |  | solubility [2]: barely soluble in DMSO; MIC (μg/mL) 48 h (C. difficile ATCC 43255 [1]; C. difficile ATCC 43255, 48-h incubation, Hydrochloride): >128 µg/mL
10 | O=[N+]([O-])c1cnc(-c2nc(-c3ccc(OC4CCC4)cc3)no2)[nH]1 [Compound 131, 3-(4-Cyclobutoxyphenyl)-5-(5-nitro-1H-imidazol-2-yl)-1,2,4-oxadiazole] |  |  |  |  |  | 0.5 (≈ 1.53 µM) | 0.25 (≈ 0.764 µM) | IC50 (THP-1 cells; [16]): > 128 µg/mL; IC50 (THP-1 cells; THP-1, read-out: toxicity IC50 (LDH assay)): > 50 µg/mL; IC50 (HepG2 cells): 41.9 ± 4.5 µg/mL (≈ 128 µM)
11 | CN[C@H](CC(C)C)C(=O)N[C@H]1C(=O)N[C@@H](CC(N)=O)C(=O)N[C@H]2C(=O)N[C@H]3C(=O)N[C@H](C(=O)N[C@H](C(=O)O)c4cc(O)cc(O)c4-c4cc3ccc4O)[C@H](O)c3ccc(c(Cl)c3)Oc3cc2cc(c3O[C@@H]2O[C@H](CO)[C@@H](O)[C@H](O)[C@H]2O[C@H]2C[C@](C)(N)[C@H](O)[C@H](C)O2)Oc2ccc(cc2Cl)[C@H]1O [VAN, vancomycin] |  |  |  |  |  |  |  | MIC (E. coli ATCC25922): > 128 µg/mL; activity against Gram-negative organisms (Gram-negative bacteria): no activity; MIC [3]: 1 µg/mL (≈ 0.69 µM); MIC (Veillonella sp. HM-49): >32 µg/mL; activity against Gram-positive bacteria [4]: has activity; recurrence of infection [5]: 24%; MIC [6]: 0.25 µg/mL (≈ 0.173 µM); MIC (K. pneumoniae ATCC700603): > 128 µg/mL; MIC (P. aeruginosa ATCC27853): > 128 µg/mL; MIC [7]: 0.25 µg/mL (≈ 0.173 µM); effect on vegetative cells by SEM [8]: damage the cell wall; also recorded: same effect; MIC (A. baumanii ATCC17961): > 128 µg/mL; increase in MIC on serial passage (C. difficile ATCC 43255 [9]): 16 fold; MIC (E. aerogenes ATCC35029): > 128 µg/mL; bactericidal or bacteriostatic (C. difficile ATCC 43255 [10]): bacteriostatic; MIC [11]: >32 µg/mL; MIC [12]: 16 µg/mL (≈ 11 µM)
